Data reported in patent US9981005B2, “Methods for increasing DISC1 in a subject with schizophrenia or bipolar disorder by an antagonist inhibiting DISC1 binding to FBXW7” (The University Court of the University of Glasgow, priority 2013, dated 2018).
Entries after “also recorded” stand apart in the source; their conditions may differ. Where a SMILES comes first, the peptide text is derived from it. Where no end group is shown, it is not given here. [ ]: non-standard residue; d: D form. The star is where a group is joined. pT = C[C@@H](OP(=O)(O)O)[C@H](N)C(=O)O; NMeE = CN[C@@H](CCC(=O)O)C(=O)O; pS = N[C@@H](COP(=O)(O)O)C(=O)O; NMeD = CN[C@@H](CC(=O)O)C(=O)O; Cbz = O=C(OCc1ccccc1)*

Tests used:
[1] = tested on: DISC1 levels in HEK293 cells; test: MG132 treatment of HEK293 cells, Western blot for DISC1; type: cell-based, human; settings: MG132 at various concentrations for 3 hours, FIG. 1
Description: The proteasome inhibitor MG132 (N-carbobenzoxyl-Leu-Leu-Leucinal) (Sigma) was dissolved in DMSO to make a stock of 10 mM and stored at −20° C. HEK293 cells were treated with MG132 at various concentrations for 3 hours. The cells were then lysed in 3T3 lysis buffer (20 mM Hepes (pH 7.4), 50 mM NaCl, 50 mM NaF, 10% (v/v) glycerol, 1% (w/v) Triton X-100, 10 mM EGTA, 30 mM sodium pyrophosphate supplemented with protease and phosphatase inhibitor cocktail (Roche)). Proteins were quantified and normalised for protein concentration followed by Western blot analysis for DISC1 and GAPDH.
(§1) Lysates were boiled in Laemmli buffer for 2 minutes prior to SDS-PAGE. Lysates were loaded on to a precast 4-12% bis-tris gel (˜10 μg/well). Gels were resolved at 150V (constant) for 90 mins. Proteins were transferred to nitrocellulose membrane at 30V for 1 hour. Membranes were blocked in 5% Milk in 1×TBS-tween20 for 1 hour at room temperature. Primary antibodies were diluted in 1% milk in 1×TBS-tween20 and incubated overnight at 4° C. […] Protein bands were visulised using the Licor Odyssey scanner and analysed using Odyssey software (version 1.2). DISC-1 protein levels were analysed by densitometry and normalised against those of the loading control (GAPDH).

[2] = tested on: DISC1 expression in HEK293 cells; test: DISC1 expression in HEK293 cells treated with cell-permeable peptides, quantitative Western blotting; type: cell-based, human; settings: for DISC1 up-regulation, time course: cell-permeable (N-terminal stearate) peptides at 100 μM, 0, 1, 2, 3 and 6 hours, FIG. 9
Description: Peptides modified at the N-terminal amino group with stearate moieties to render them cell permeable (Severn Biotech Ltd) were dissolved in sterile DMSO at a stock concentration of 100 mM.
HEK293 cells were seeded into 6 well plates and cultured until 70-80% confluent. Cell permeable peptides 139 and 142 were added at 100 μM. Cells were incubated at 37° C./5% C02. Cells were taken at 0, 1, 2, 3 and 6 hours post peptide addition. After treatment cells were washed briefly with ice cold PBS and lysed on ice using 3T3 lysis buffer (20 mM Hepes (pH 7.4), 50 mM NaCl, 50 mM NaF, 10% (v/v) glycerol, 1% (w/v) Triton X-100, 10 mM EGTA, 30 mM sodium pyrophosphate) containing protease and phosphatase inhibitors. Protein concentrations were assessed using Bradford assay. Cell lysates were separated by SDS-PAGE and levels of DISC1 expression determined by quantitative Western blotting using the Licor Odyssey imaging system. GAPDH was used as a control to confirm equal loading.
In a similar experiment, HEK293 were seeded into 6 well plates and cultured until 70-80% confluent. Cell-permeable peptides 139 and 142 were added over a concentration range: 10 μM, 30 μM, 50 μM, 100 μM in duplicate. Cells were incubated at 37° C./5% C02 for 3 hours. […] After treatment cells were washed briefly with ice cold PBS and lysed on ice as described above.
as §1

[3] = tested on: FBXW7 substrates Notch-1, c-Myc, c-Jun and cyclinE; test: Expression levels of other FBXW7 substrates after peptide treatment, Western blot; type: cell-based, human; settings: FIG. 11, specificity for the FBXW7-DISC1 interaction
Description: Lysates were boiled in Laemmli buffer for 2 minutes prior to SDS-PAGE. Lysates were loaded on to a precast 4-12% bis-tris gel (˜10 μg/well). Gels were resolved at 150V (constant) for 90 mins. Proteins were transferred to nitrocellulose membrane at 30V for 1 hour. Membranes were blocked in 5% Milk in 1×TBS-tween20 for 1 hour at room temperature. Primary antibodies were diluted in 1% milk in 1×TBS-tween20 and incubated overnight at 4° C. Membranes were washed three times with 1×TBS-tween20 and the appropriate secondary antibody (diluted using 1% milk in 1×TBS-tween20) was added for 45 mins at room temperature. Membranes were washed a further three times with 1×TBS-tween20 and once in 1×TBS. Protein bands were visulised using the Licor Odyssey scanner and analysed using Odyssey software (version 1.2). DISC-1 protein levels were analysed by densitometry and normalised against those of the loading control (GAPDH).

FBXW7 = FBXW7 (Homo sapiens, UniProt Q969H0); test: Peptides immobilised on membranes screened for the ability to bind FBXW7; type: binding
FBXW7, sequence (Q969H0 whole entry): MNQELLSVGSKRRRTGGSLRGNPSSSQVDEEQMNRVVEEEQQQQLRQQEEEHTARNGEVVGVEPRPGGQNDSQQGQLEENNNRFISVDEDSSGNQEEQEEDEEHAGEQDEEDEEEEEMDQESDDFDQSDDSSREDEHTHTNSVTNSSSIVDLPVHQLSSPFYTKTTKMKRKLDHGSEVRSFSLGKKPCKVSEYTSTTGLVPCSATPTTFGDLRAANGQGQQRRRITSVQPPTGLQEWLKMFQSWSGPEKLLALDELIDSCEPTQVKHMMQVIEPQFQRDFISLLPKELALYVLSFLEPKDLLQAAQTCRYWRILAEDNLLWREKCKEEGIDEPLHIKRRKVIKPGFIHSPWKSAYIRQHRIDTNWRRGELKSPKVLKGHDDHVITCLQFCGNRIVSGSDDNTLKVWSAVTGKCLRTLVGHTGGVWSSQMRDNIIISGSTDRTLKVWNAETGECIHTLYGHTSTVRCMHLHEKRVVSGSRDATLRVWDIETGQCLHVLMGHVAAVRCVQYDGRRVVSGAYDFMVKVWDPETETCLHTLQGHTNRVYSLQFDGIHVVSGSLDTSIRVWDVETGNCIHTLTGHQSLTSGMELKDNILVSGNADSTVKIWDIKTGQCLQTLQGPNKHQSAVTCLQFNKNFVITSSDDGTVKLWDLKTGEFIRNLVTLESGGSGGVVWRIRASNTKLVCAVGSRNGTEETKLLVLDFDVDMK
Excerpt: Peptides derived from DISC1 and containing the putative phospho-degron motif were immobilised on membranes and screened for the ability to bind FBXW7. […] (SEQ ID NO: 114).
The 7-mer peptide P-pT-P-P-G-pS-H (SEQ ID NO: 21) was used as the basis for further investigation. L- and D-forms of aspartic acid and glutamic acid (upper and lower case letters respectively) as well as N-methylated versions of each (designated “m”) were incorporated at positions 198 and 202.

Skp1-FBXW7 = target: T1, Skp1-FBXW7 (Homo sapiens, UniProt Q969H0); test: Isothermal titration calorimetry (ITC); type: binding; settings: ITC at 25° C.
T1 construct: human FBXW7 (residues 263-707); His6 (N, cleaved yes); made in house; host or cells: Escherichia coli
T1 sequence (Q969H0 263-707): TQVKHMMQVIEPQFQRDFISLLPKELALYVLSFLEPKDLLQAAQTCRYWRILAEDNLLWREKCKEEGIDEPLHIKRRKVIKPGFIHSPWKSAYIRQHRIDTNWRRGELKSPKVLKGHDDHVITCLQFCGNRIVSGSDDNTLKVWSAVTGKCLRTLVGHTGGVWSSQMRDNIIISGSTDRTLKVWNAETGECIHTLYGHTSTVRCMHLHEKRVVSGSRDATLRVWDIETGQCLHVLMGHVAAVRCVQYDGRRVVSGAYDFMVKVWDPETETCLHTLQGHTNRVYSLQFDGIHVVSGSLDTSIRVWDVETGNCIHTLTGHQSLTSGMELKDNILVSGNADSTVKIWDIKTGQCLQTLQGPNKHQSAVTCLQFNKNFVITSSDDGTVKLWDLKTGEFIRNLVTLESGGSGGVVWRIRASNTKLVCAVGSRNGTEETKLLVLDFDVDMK
Description: Affinity of DISC1 analogue peptides (or other binding inhibitors) for FBXW7 may be determined using ITC.
Protein samples are typically dialysed against a solution containing 20 mM HEPES-Na (pH 7.4), 200 mM NaCl, and 2 mM β-mercaptoethanol before combining. Typically, the concentrations of Skp1-FBXW7 and DISC1 peptides used in the assay are 50 μM and 1 mM, respectively.
Titration is performed at 25° C. with a NANO ITC System (TA Instruments, New Castle, Del.) and data analysed using the TA Nano Analyze software. Dissociation constants and their standard deviations are typically derived from two to three independent measurements.

Row | Molecule | DISC1 levels [1] | DISC1 up-regulation, time course [2] | effect on expression levels of the other FBXW7 substrates Notch-1, c-Myc, c-Jun and cyclinE [3] | binding to FBXW7 (FBXW7) | DISC1 up-regulation, dose dependence ([2]; cell-permeable peptides at 10 μM, 30 μM, 50 μM, 100 μM, 3 hours, FIG. 10) | Kd (Skp1-FBXW7) [nM]
1 | CC(C)C[C@@H](C=O)NC(=O)[C@H](CC(C)C)NC(=O)[C@H](CC(C)C)NC(=O)OCc1ccccc1 [MG132, N-carbobenzoxyl-Leu-Leu-Leucinal] (Cbz-Leu-Leu-Leu-aldehyde) | up-regulates DISC1 levels |  |  |  |  | 
2 | G-mD-P-P-G-mE-H (G[NMeD]PPG[NMeE]H) [Peptide 142] |  | Up-Regulate DISC1 Expression | do not upregulate other FBXW7 substrates; also recorded: no effect | retain or have improved binding to FBXW7 |  | 
3 | G-mE-P-P-G-mE-H (G[NMeE]PPG[NMeE]H) [Peptide 139] |  | Up-Regulate DISC1 Expression | do not upregulate other FBXW7 substrates; also recorded: no effect | retain or have improved binding to FBXW7 | dose-dependent | 
4 | CC(C)[C@H](N)C(=O)N1CCC[C@H]1C(=O)N1CCC[C@H]1C(=O)N[C@H](C(=O)N1CCC[C@H]1C(=O)N1CCC[C@H]1C(=O)NCC(=O)N[C@@H](COP(=O)(O)O)C(=O)N[C@@H](Cc1c[nH]cn1)C(=O)O)[C@@H](C)OP(=O)(O)O [VPPpTPPGpSH] (H-VPP[pT]PPG[pS]H-OH; N-terminus and C-terminus assumed) |  |  |  |  |  | ~1000
